In brackets after ≈: the same amount, converted by molar mass. Where two headings read alike, the source gives them in different places.
Legend:
A. baumannii 1646 [1] = assay: murine model of lethal peritonitis; format: in vivo, mice; conditions: 30 mg kg^-1 intraperitoneal, one hour post challenge, 5 days
Experimental: As a final assessment, we used a murine model of lethal A. baumannii infection to determine the efficacy of quinazolines in vivo. This was performed using frontrunner 5, which had the most promising properties from all of our biological testing. Accordingly, mice were inoculated with a lethal dose of A. baumannii via intraperitoneal injection on the right side of the abdomen. One hour post challenge, mice were treated with an intraperitoneal injection of 2 mg kg^−1 of frontrunner 5 on the left side of the abdomen. As a control, we also performed similar testing using 30 mg kg^−1 of tigecycline, which we already know our test strain to be susceptible to in vitro.
Characteristics of pre-moribund state include: hunched posture, rapid, shallow and/or labored breathing, ruffled fur, lethargy, failure to respond to stimuli, soiled anogenital area, paralysis, paresis, head tilt, circling, vocalizations, non-purposeful movements, and/or were unable to eat or drink. Those mice reaching this state prior to the completion of the 5-day infection period were euthanized. The number of mice surviving between control and treatment groups was compared and analyzed for statistical significance using a log-rank (Mantel-Cox) test.

A. baumannii 1403 [2] = assay: MIC assay, strain 1403; format: cell-based, Acinetobacter baumannii; conditions: Acinetobacter baumannii, strain 1403
Experimental: (§1) MIC and MBC assays were performed in this study as documented by us previously.^17,23,24,25 The A. baumannii strains used are detailed in Table 7.

A. baumannii 1646 [3] = assay: MIC assay, strain 1646; format: cell-based, Acinetobacter baumannii; conditions: Acinetobacter baumannii
Experimental: as §1

A. baumannii 1649 [4] = assay: MIC assay, strain 1649; format: cell-based, Acinetobacter baumannii; conditions: Acinetobacter baumannii, strain 1649
Experimental: as §1

A. baumannii 1650 [5] = assay: MIC assay, strain 1650; format: cell-based, Acinetobacter baumannii; conditions: Acinetobacter baumannii, strain 1650
Experimental: as §1

A. baumannii 1651 [6] = assay: MIC assay, strain 1651; format: cell-based, Acinetobacter baumannii; conditions: Acinetobacter baumannii, strain 1651
Experimental: as §1

A. baumannii 1652 [7] = assay: MIC assay, strain 1652; format: cell-based, Acinetobacter baumannii; conditions: Acinetobacter baumannii, strain 1652
Experimental: as §1

A. baumannii strain 1403 = format: cell-based, Acinetobacter baumannii; conditions: serial passage, 8 days, start 0.5× MIC
Experimental: An important attribute of novel antibiotics is the ability to fend off the development of resistance towards their effects. To assess this capacity, A. baumannii strains were incubated overnight with 0.5× MIC of each of the frontrunners. The next day cells were washed and used to inoculate fresh media that contained a two-fold increase in drug. This was repeated for a total of 8 days, alongside sulfamethoxazole (SMX) and trimethoprim (TMP) controls, both of which target the same pathway as our lead agents (FIG. 2).
In order to test potential resistance towards the quinazolines, a serial passage assay was performed alongside control compounds (Sulfamethoxazole and Trimethoprim), as described by us previously.^24 A. baumannii strain 1403 was grown overnight in LB media at 37° C. The next day cultures were diluted 1:100 in fresh media and seeded into a 96-well plate. Lead quinazolines or control agents were added to respective wells at half MIC concentrations. […] These were then grown overnight, and the procedure repeated for a total of eight days.

human HepG2 cells = format: cell-based
Experimental: Cytotoxicity assays were performed using human HepG2 cells (human liver epithelial with hepatocellular carcinoma), as described by us previously.^17,24 Cells were cultured in Dulbecco's modified eagle medium (DMEM), supplemented with 10% fetal bovine serum and 1% penicillin-streptomycin for 3 days at 37° C. and 5% CO2. Cells were then diluted to 1×10^5 ml^−1 using fresh DMEM and added to 96 well tissue culture plates at a volume of 100 μL. Plates were incubated for 24 hours at 37° C. and 5% CO2, allowing the cells to adhere to the plastic. […] Plates were then incubated for 48 hours at 37° C. and 5% CO2. After 48 hours the DMEM was removed and 100 μL of new media was added containing MTT (3-(4, 5-dimethylthiazol-2-yl)-2, 5-diphenyltetrazolium bromide), followed by incubation for four hours at 37° C. and 5% CO2. […] Lead compounds were solvated in 100% DMSO for these studies, which served as the negative control. LD50 values were determined for each compound by comparison to vehicle only controls.

A. baumannii 1403 [8] = assay: minimal bactericidal concentration (MBC) assay, strain 1403; format: cell-based; conditions: Acinetobacter baumannii, Table 8, read-out: MBC90 1403
Text: (§2) Lead quinazolines 4, 5, 26, 29, 27, and 30 were selected to be further evaluated for antimicrobial effects. The first assay utilized was a minimal bactericidal concentration (MBC) assay, to assess whether leads compounds were bacteriostatic or bactericidal. The six lead agents were screened to identify their MBC90 towards each of the six A. baumannii isolates used in the SAR studies (Table 8), however for simplicity only the representative data for isolate 1646 is detailed below (Table 6). […] Further to this, we were able to obtain complete eradication of bacterial growth for these two compounds at 1 μM for 24 and 5 μM for 25.
as §1

A. baumannii 1646 [9] = assay: minimal bactericidal concentration (MBC) assay, strain 1646; format: cell-based, Acinetobacter baumannii
Text: as §2, §1

A. baumannii 1649 [10] = assay: minimal bactericidal concentration (MBC) assay, strain 1649; format: cell-based; conditions: Acinetobacter baumannii, Table 8, read-out: MBC90 1649
Text: as §2, §1

A. baumannii 1650 [11] = assay: minimal bactericidal concentration (MBC) assay, strain 1650; format: cell-based; conditions: Acinetobacter baumannii, Table 8, read-out: MBC90 1650
Text: as §2, §1

A. baumannii 1651 [12] = assay: minimal bactericidal concentration (MBC) assay, strain 1651; format: cell-based; conditions: Acinetobacter baumannii, Table 8, read-out: MBC90 1651
Text: as §2, §1

A. baumannii 1652 [13] = assay: minimal bactericidal concentration (MBC) assay, strain 1652; format: cell-based; conditions: Acinetobacter baumannii, Table 8, read-out: MBC90 1652
Text: as §2, §1

[14] = tested on: A. baumannii 1403 biofilm; assay: biofilm eradication determination assay, strain 1403; format: cell-based, Acinetobacter baumannii; conditions: 90% biofilm eradication, Table 8
Experimental: (§3) These assays were performed as described by us previously,^26,24 as follows. Each of the A. baumannii strains were grown overnight in Mueller Hinton Broth (MHB). The next day these were used to seed fresh MHB to an OD600 of 0.5, with 150 μL then added to the wells of a 96 well plate and grown for 24 hours at 37° C. After 24 hours, the planktonic bacteria were carefully removed and fresh MHB was added with increasing concentrations of lead quinazolines. After incubation at 37° C. for 24 hours, planktonic cells were removed and biofilms were washed three times with phosphate buffered saline (PBS). Biofilms were then resuspended in PBS and plated for cell viability on tryptic soy agar. Biofilm recovery was assessed compared to no drug controls, and determined as percent eradication. This was used to determine MBEC90 values (Minimal Biofilm Eradication Concentration), where the viability of cells within the biofilm was reduced by 90%.

[15] = tested on: A. baumannii 1646 biofilm; assay: biofilm eradication determination assay, strain 1646; format: cell-based, Acinetobacter baumannii
Experimental: as §3

[16] = tested on: A. baumannii 1649 biofilm; assay: biofilm eradication determination assay, strain 1649; format: cell-based, Acinetobacter baumannii; conditions: 90% biofilm eradication, Table 8
Experimental: as §3

[17] = tested on: A. baumannii 1650 biofilm; assay: biofilm eradication determination assay, strain 1650; format: cell-based, Acinetobacter baumannii; conditions: 90% biofilm eradication, Table 8
Experimental: as §3

[18] = tested on: A. baumannii 1651 biofilm; assay: biofilm eradication determination assay, strain 1651; format: cell-based, Acinetobacter baumannii; conditions: 90% biofilm eradication, Table 8
Experimental: as §3

[19] = tested on: A. baumannii 1652 biofilm; assay: biofilm eradication determination assay, strain 1652; format: cell-based, Acinetobacter baumannii; conditions: 90% biofilm eradication, Table 8
Experimental: as §3

A. baumannii = assay: MIC assay, A. baumannii isolates (strain not given); format: cell-based, Acinetobacter baumannii; conditions: Acinetobacter baumannii; most isolates besides the 1652 strain; read-out: MIC against most isolates
Experimental: as §1

[20] = Tables 1, 3, 4, 5 and footnotes, read-out: 1403 MIC
[21] = strain 1646, Tables 1, 3, 4, 5 and footnotes, read-out: 1646 MIC
[22] = Tables 1, 3, 4, 5 and footnotes, read-out: 1649 MIC
[23] = Tables 1, 3, 4, 5 and footnotes, read-out: 1650 MIC
[24] = Tables 1, 3, 4, 5 and footnotes, read-out: 1651 MIC
[25] = Tables 1, 3, 4, 5 and footnotes, read-out: 1652 MIC

In the case of `CN(C)c1cc(NC(=O)CNC(C)(C)C)c(O)c2c1C[C@H]1C[C@H]3[C@H](N(C)C)C(O)=C(C(N)=O)C(=O)[C@@]3(O)C(O)=C1C2=O` [tigecycline, reference compound], the “survival rate of infected animals” value (A. baumannii 1646 [1]) is reported as 66%.
`COc1cc(Cc2cnc(N)nc2N)cc(OC)c1OC` [TMP, trimethoprim, reference compound] showed an MIC (A. baumannii 1403 [2]; [20]) of 103 µM (≈ 29.9 µg/mL), an MIC (A. baumannii 1646 [3]; [21]) of 34 µM (≈ 9.87 µg/mL) and an MIC (A. baumannii 1649 [4]; [22]) of 517 µM (≈ 150 µg/mL). It also gave an MIC (A. baumannii 1650 [5]; [23]) of 120 µM (≈ 34.8 µg/mL), an MIC (A. baumannii 1651 [6]; [24]) of 103 µM (≈ 29.9 µg/mL) and an MIC (A. baumannii 1652 [7]; [25]) of 103 µM (≈ 29.9 µg/mL). For the same molecule, the “increase in MIC over the 8-day test period” value (A. baumannii strain 1403) was 64 fold and the HepG2 cell viability (human HepG2 cells; human, 48 h, 25 μM) was 45%.
In the case of `Cc1cc(NS(=O)(=O)c2ccc(N)cc2)no1` [SMX, Sulfamethoxazole, reference compound], the MIC (A. baumannii 1403 [2]; [20]) is reported as 138 µM (≈ 35 µg/mL), the MIC (A. baumannii 1646 [3]; [21]) is reported as 118 µM (≈ 29.9 µg/mL) and the MIC (A. baumannii 1649 [4]; [22]) is reported as 118 µM (≈ 29.9 µg/mL). The MIC (A. baumannii 1650 [5]; [23]) was 118 µM (≈ 29.9 µg/mL), the MIC (A. baumannii 1651 [6]; [24]) was 118 µM (≈ 29.9 µg/mL) and the MIC (A. baumannii 1652 [7]; [25]) was 118 µM (≈ 29.9 µg/mL). For the same molecule, the “increase in MIC over the 8-day test period” value (A. baumannii strain 1403) was 128 fold and the HepG2 cell viability (human HepG2 cells; human, 48 h, 25 μM) was 46%.
With `CCCCCc1ccc2nc(NCc3ccccc3)nc(NC)c2c1` [Compound 27, N^2-Benzyl-N^4-methyl-6-pentylquinazoline-2,4-diamine] the MIC (A. baumannii 1403 [2]; [20]) was 2 µM (≈ 0.669 µg/mL), the MIC (A. baumannii 1403 [2]; lead quinazolines, Table 8, read-out: MIC 1403) was 15 µM (≈ 5.02 µg/mL) and the MIC (A. baumannii 1646 [3]; Table 6, representative data for isolate 1646, read-out: MIC) was 1 µM (≈ 0.334 µg/mL). For the same molecule, the MIC (A. baumannii 1646 [3]; [21]) was 2 µM (≈ 0.669 µg/mL), the MIC (A. baumannii 1646 [3]; strain 1646, lead quinazolines, Table 8, read-out: MIC 1646) was 1 µM (≈ 0.334 µg/mL) and the MIC (A. baumannii 1649 [4]; [22]) was 2 µM (≈ 0.669 µg/mL). For the same molecule, the MIC (A. baumannii 1649 [4]; lead quinazolines, Table 8, read-out: MIC 1649) was 10 µM (≈ 3.34 µg/mL), the MIC (A. baumannii 1650 [5]; [23]) was 2 µM (≈ 0.669 µg/mL) and the MIC (A. baumannii 1650 [5]; lead quinazolines, Table 8, read-out: MIC 1650) was 10 µM (≈ 3.34 µg/mL). It also gave an MIC (A. baumannii 1651 [6]; [24]) of 2 µM (≈ 0.669 µg/mL), an MIC (A. baumannii 1651 [6]; lead quinazolines, Table 8, read-out: MIC 1651) of 10 µM (≈ 3.34 µg/mL) and an MIC (A. baumannii 1652 [7]; [25]) of 10 µM (≈ 3.34 µg/mL). It also gave an MIC (A. baumannii 1652 [7]; lead quinazolines, Table 8, read-out: MIC 1652) of 20 µM (≈ 6.69 µg/mL), an MBC (A. baumannii 1403 [8]) of 20 µM (≈ 6.69 µg/mL) and an MBC (A. baumannii 1646 [9]; Acinetobacter baumannii, 1646, strain 1646, Table 8 and text, read-out: MBC90 1646) of 1.1 µM (≈ 0.368 µg/mL). The MBC (A. baumannii 1646 [9]; Acinetobacter baumannii, Table 6, representative data for isolate 1646, read-out: MBC90) was 1.1 µM (≈ 0.368 µg/mL), the MBC (A. baumannii 1649 [10]) was 43 µM (≈ 14.4 µg/mL) and the MBC (A. baumannii 1650 [11]) was 20 µM (≈ 6.69 µg/mL). For the same molecule, the MBC (A. baumannii 1651 [12]) was 4.1 µM (≈ 1.37 µg/mL), the MBC (A. baumannii 1652 [13]) was 23 µM (≈ 7.69 µg/mL) and the “MBEC90 1403” value [14] was 12 µM. The MBEC90 ([15]; Table 6, representative data for isolate 1646) was 11.5 µM, the “MBEC90 1646” value ([15]; strain 1646, 90% biofilm eradication, Table 8 and text) was 12 µM and the “MBEC90 1649” value [16] was 62 µM. For the same molecule, the “MBEC90 1650” value [17] was 49 µM, the “MBEC90 1651” value [18] was 18 µM and the “MBEC90 1652” value [19] was 64 µM. The MIC (A. baumannii) was 2 µM (≈ 0.669 µg/mL), the HepG2 cell viability (human HepG2 cells; at 25 μM (highest concentration tested)) was 31% and the “LD50(HepG2)” value (human HepG2 cells; human, 48 h) was 12 µM.
